These are literature values, as cited in paper PMC3582496 (PLoS Biology, 2013).

As usually defined, the Km is the concentration of substrate that gives half-maximal velocity. What is called Vmax is the top rate of the reaction or transport when substrate is in excess.

Data set [1] concerns CN.
In data set [2] the test system is CN. The source holds these as a separate data set.

On to “DLDVPIPGRFDRRVpSVCAE [RII phosphopeptide]”, for which, in the data set on CN [1], the Km is 26 µM and the Vmax was 1.7 µmol/min/mg. On to `C=CC[C@@H]1/C=C(\C)C[C@H](C)C[C@H](OC)[C@H]2O[C@@](O)(C(=O)C(=O)N3CCCC[C@H]3C(=O)O[C@H](/C(C)=C/[C@@H]3CC[C@@H](O)[C@H](OC)C3)[C@H](C)[C@@H](O)CC1=O)[C@H](C)C[C@@H]2OC` [FK506], for which the “effect on rate of pNpp hydrolysis” value in the data set on CN [2] is “rate increases”. With cyclosporin A [CSA], the “effect on rate of pNpp hydrolysis” value in the data set with CN [2] is “rate increases”.
